In PubChem BioAssay (NCI):
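Compound exposure: 48 hours, 5 concentrations, 96-well plates. TGI: concentration producing complete growth inhibition.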

Assays:
Test in all cases: NCI anticancer screen, dose series, 48 h
CCRF-CEM leukemia = tested on: CCRF-CEM leukemia
HCT-116 colon = tested on: HCT-116 colon
HCT-15 colon = tested on: HCT-15 colon
HS 578T breast = tested on: HS 578T breast
LOX IMVI melanoma = tested on: LOX IMVI melanoma
OVCAR-3 ovarian = tested on: OVCAR-3 ovarian
OVCAR-4 ovarian = tested on: OVCAR-4 ovarian
PC-3 prostate = tested on: PC-3 prostate
SF-295 CNS = tested on: SF-295 CNS
SNB-19 CNS = tested on: SNB-19 CNS
SK-MEL-2 melanoma = tested on: SK-MEL-2 melanoma
SNB-75 CNS = tested on: SNB-75 CNS
UO-31 renal = tested on: UO-31 renal

SMILES	TGI (CCRF-CEM leukemia) [µM]	TGI (HCT-116 colon) [µM]	TGI (HCT-15 colon) [µM]	TGI (HS 578T breast) [µM]	TGI (LOX IMVI melanoma) [µM]	TGI (OVCAR-3 ovarian) [µM]	TGI (OVCAR-4 ovarian) [µM]	TGI (PC-3 prostate) [µM]	TGI (SF-295 CNS) [µM]	TGI (SNB-19 CNS) [µM]	TGI (SK-MEL-2 melanoma) [µM]	TGI (SNB-75 CNS) [µM]	TGI (UO-31 renal) [µM]
O=C1Oc2cc3c(c4cccc1c24)O[C@H](c1ccccc1)[C@@H](c1ccccc1)[C@@H]3c1ccc(Cl)cc1	> 100	> 100	> 100	> 100	> 100	> 100	> 100	> 100	> 100	> 100	–	–	–
COC(=O)c1c(-c2ccccc2)c2sc3ccccc3n2c1N	> 100	> 100	> 100	–	43.2	> 100	> 100	> 100	> 100	> 100	70.7	> 100	> 100
CC(C)(C)S(=O)OC12CC3CC(CC(C3)C1)C2 (stereo not drawn)	> 100	> 100	> 100	–	> 100	> 100	> 100	–	> 100	> 100	> 100	> 100	> 100
O=C(CC1C(=O)c2ccccc2C1=C1C(=O)c2ccccc2C1=O)c1ccccc1 (stereo not drawn)	> 100	–	> 100	–	> 100	–	> 100	–	> 100	> 100	> 100	> 100	> 100
Cc1cc(N(CCC#N)CCC#N)ccc1C=Nc1ccc(C(=O)NN2C(=O)/C(=C/c3ccc(N(CCC#N)CCC#N)cc3)N=C2c2cc([N+](=O)[O-])ccc2Cl)cc1	> 100	> 100	> 100	–	> 100	> 100	> 100	–	–	> 100	> 100	> 100	> 100
Cn1c2ccccc2c(=O)c2[nH]c3ccccc3c21	> 100	> 100	> 100	–	> 100	> 100	> 100	> 100	> 100	> 100	> 100	99.8	> 100
COc1cc(C(=O)Oc2c(C#N)sc3c2c(=O)n(-c2ccccc2)c(=S)n3-c2ccccc2)cc(OC)c1OC	28.9	35.5	43	42.5	51.6	> 100	80.9	> 100	27.9	72	–	50.3	–
COCCOC(=O)C(C)=[N+]=[N-]	–	> 100	> 100	> 100	> 100	> 100	> 100	> 100	> 100	> 100	–	> 100	> 100
NCc1cc(O)c(O)c(O)c1	> 100	> 100	> 100	–	> 100	> 100	> 100	–	> 100	> 100	> 100	> 100	> 100
Cc1ccc(NC(=O)C(=O)Cc2cc[n+]([O-])cc2)cc1	> 100	> 100	> 100	–	> 100	> 100	> 100	–	> 100	> 100	> 100	> 100	> 100
COc1cc2c(cc1OC)C(=O)N(NC1=NCCN1)C2=O	> 100	> 100	> 100	> 100	> 100	> 100	> 100	> 100	> 100	> 100	> 100	–	–
C=CCN1CN(c2ccccc2)C2(CCN(CCCC3(c4ccc(F)cc4)OCCO3)CC2)C1=O	41.4	28.4	25.7	–	34.5	27.7	–	31.7	33	39.9	–	32.8	22.3
O=C(CSC1=NNC2(C(=O)N1)c1ccccc1-c1ccccc12)NC(=S)Nc1ccccc1	> 10	> 10	> 10	–	> 10	–	> 10	> 10	> 10	> 10	–	> 10	> 10
CC(C)(C)OC(=O)N(CCCCNCc1ccc2ccccc2c1)CCCNCc1ccc2ccccc2c1	2.86	2.4	3.12	3.3	–	–	3.19	4.06	–	3.22	–	2.99	3.17
CCC1CN2CCC3(c4ccccc4)CC(C(=O)OC)=CC1C23 (stereo not drawn)	> 100	29.4	31.9	–	28.3	33.8	27.8	–	33.1	35	–	51	27.1
